From ChEMBL document CHEMBL1201862, “PubChem BioAssay data set” (2004)
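Tested at 5 concentrations; 48 h exposure; 96-well plates; endpoints linearly interpolated, else capped at highest concentration. GI50 is the concentration that inhibits growth by half.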 Active and inactive are the calls of the source. Cut-off read from the data, not from the text of the source: active = GI50 up to about 1.1 µM and inactive = higher.

How the values were obtained:
Assay in all cases: DTP human tumour cell line panel, 48 h
[1] = test system: NCI-H460
[2] = test system: SK-MEL-28
[3] = test system: SK-MEL-2
[4] = test system: NCI/ADR-RES
[5] = test system: PC-3
[6] = test system: MDA-MB-435
[7] = test system: OVCAR-3
[8] = test system: ACHN
[9] = test system: IGROV-1
[10] = test system: SNB-75
[11] = test system: RXF 393
[12] = test system: 786-0
[13] = test system: SR
[14] = test system: COLO 205
[15] = test system: MDA-MB-231
[16] = test system: KM12
[17] = test system: CAKI-1
[18] = test system: M14
[19] = test system: OVCAR-4
[20] = test system: A498

CNc1nc(N)c(N=O)c(Nc2ccc(Br)cc2)n1
GI50 [1]: > 100 µM (inactive) | GI50 [2]: > 100 µM (inactive) | GI50 [3]: > 100 µM (inactive) | GI50 [4]: > 100 µM (inactive) | GI50 [5]: > 100 µM (inactive) | GI50 [6]: > 100 µM (inactive) | GI50 [7]: > 100 µM (inactive) | GI50 [8]: 53.2 µM (inactive) | GI50 [9]: > 100 µM (inactive) | GI50 [10]: 68.5 µM (inactive) | GI50 [11]: > 100 µM (inactive) | GI50 [12]: > 100 µM (inactive) | GI50 [13]: > 100 µM (inactive) | GI50 [14]: > 100 µM (inactive) | GI50 [15]: > 100 µM (inactive) | GI50 [16]: > 100 µM (inactive)

COc1ccc(-n2c3c(c4cc(O)ccc42)C(=O)c2ccccc2C3=O)cc1
GI50 [17]: 95.7 µM (inactive) | GI50 [18]: > 100 µM (inactive) | GI50 [1]: 3.97 µM (inactive) | GI50 [2]: 3.08 µM (inactive) | GI50 [3]: 5.75 µM (inactive) | GI50 [4]: 4.61 µM (inactive) | GI50 [19]: 17.4 µM (inactive) | GI50 [5]: 5.32 µM (inactive) | GI50 [6]: 13.8 µM (inactive) | GI50 [7]: 8.38 µM (inactive) | GI50 [8]: 0.682 µM (active) | GI50 [9]: 3.79 µM (inactive) | GI50 [20]: 3.93 µM (inactive) | GI50 [11]: 2.84 µM (inactive) | GI50 [12]: 1.72 µM (inactive) | GI50 [13]: 10.4 µM (inactive) | GI50 [14]: 80.5 µM (inactive) | GI50 [15]: 2 µM (inactive) | GI50 [16]: 2.13 µM (inactive)

Cc1cn(CC(=S)NCCc2c[nH]c3ccccc23)c(=O)[nH]c1=O
GI50 [18]: > 100 µM (inactive) | GI50 [2]: > 100 µM (inactive) | GI50 [3]: > 100 µM (inactive) | GI50 [4]: 99.1 µM (inactive) | GI50 [19]: 48.8 µM (inactive) | GI50 [5]: 77.1 µM (inactive) | GI50 [6]: 74.5 µM (inactive) | GI50 [7]: > 100 µM (inactive) | GI50 [8]: 69.3 µM (inactive) | GI50 [9]: > 100 µM (inactive) | GI50 [20]: 60.1 µM (inactive) | GI50 [11]: > 100 µM (inactive) | GI50 [12]: > 100 µM (inactive) | GI50 [13]: 28.1 µM (inactive) | GI50 [14]: > 100 µM (inactive) | GI50 [15]: > 100 µM (inactive) | GI50 [16]: > 100 µM (inactive)

O=C1CCCCN1C(=O)c1ccc([N+](=O)[O-])cc1
GI50 [17]: > 100 µM (inactive) | GI50 [18]: > 100 µM (inactive) | GI50 [1]: > 100 µM (inactive) | GI50 [2]: > 100 µM (inactive) | GI50 [4]: > 100 µM (inactive) | GI50 [19]: > 100 µM (inactive) | GI50 [5]: 44.3 µM (inactive) | GI50 [6]: > 100 µM (inactive) | GI50 [7]: > 100 µM (inactive) | GI50 [8]: > 100 µM (inactive) | GI50 [9]: > 100 µM (inactive) | GI50 [10]: > 100 µM (inactive) | GI50 [20]: > 100 µM (inactive) | GI50 [11]: > 100 µM (inactive) | GI50 [12]: > 100 µM (inactive) | GI50 [13]: > 100 µM (inactive) | GI50 [15]: > 100 µM (inactive) | GI50 [16]: > 100 µM (inactive)

Clc1cccc(Cl)c1C1SCC2=Nc3ccccc3CN21 (configuration not stated)
GI50 [17]: 60.3 µM (inactive) | GI50 [18]: 18.4 µM (inactive) | GI50 [1]: 19.5 µM (inactive) | GI50 [2]: 23.3 µM (inactive) | GI50 [4]: 19.4 µM (inactive) | GI50 [19]: 80.4 µM (inactive) | GI50 [5]: 18.7 µM (inactive) | GI50 [6]: 27.2 µM (inactive) | GI50 [7]: 15 µM (inactive) | GI50 [9]: 22.9 µM (inactive) | GI50 [10]: 38.3 µM (inactive) | GI50 [20]: 71.8 µM (inactive) | GI50 [11]: 27.8 µM (inactive) | GI50 [12]: 13.2 µM (inactive) | GI50 [13]: 34.1 µM (inactive) | GI50 [14]: 14.1 µM (inactive) | GI50 [15]: 42.9 µM (inactive) | GI50 [16]: 20.8 µM (inactive)

COC1=C(OC)C(=O)C(Cc2c(Cl)nc3sccn23)=C(C)C1=O
GI50 [17]: 14.3 µM (inactive) | GI50 [18]: 11.7 µM (inactive) | GI50 [1]: 12.8 µM (inactive) | GI50 [2]: 12 µM (inactive) | GI50 [3]: 14.1 µM (inactive) | GI50 [4]: 5.89 µM (inactive) | GI50 [19]: 2.96 µM (inactive) | GI50 [5]: 14.2 µM (inactive) | GI50 [6]: 8.91 µM (inactive) | GI50 [7]: 12.7 µM (inactive) | GI50 [8]: 12.4 µM (inactive) | GI50 [9]: 15.7 µM (inactive) | GI50 [20]: 12.8 µM (inactive) | GI50 [11]: 16.1 µM (inactive) | GI50 [12]: 16.7 µM (inactive) | GI50 [13]: 5.04 µM (inactive) | GI50 [14]: 15.7 µM (inactive) | GI50 [15]: 2.38 µM (inactive) | GI50 [16]: 10.4 µM (inactive)

O=C1/C(=C/c2ccc(O)cc2)NC(=S)N1CN1CCCCC1
GI50 [18]: 59.2 µM (inactive) | GI50 [2]: > 100 µM (inactive) | GI50 [3]: > 100 µM (inactive) | GI50 [4]: > 100 µM (inactive) | GI50 [19]: 53.3 µM (inactive) | GI50 [5]: 53.2 µM (inactive) | GI50 [6]: 70.3 µM (inactive) | GI50 [7]: > 100 µM (inactive) | GI50 [8]: 45.7 µM (inactive) | GI50 [9]: 98.9 µM (inactive) | GI50 [10]: > 100 µM (inactive) | GI50 [20]: 96.6 µM (inactive) | GI50 [12]: 62.2 µM (inactive) | GI50 [13]: 49.2 µM (inactive) | GI50 [14]: 21 µM (inactive) | GI50 [15]: > 100 µM (inactive) | GI50 [16]: > 100 µM (inactive)

C/C1=C\CC[C@@]2(C)O[C@@H]2[C@H]2OC(=O)C(C)C2C[C@H]1O (some centres not stated)
GI50 [17]: > 100 µM (inactive) | GI50 [18]: > 100 µM (inactive) | GI50 [1]: > 100 µM (inactive) | GI50 [2]: > 100 µM (inactive) | GI50 [3]: > 100 µM (inactive) | GI50 [4]: > 100 µM (inactive) | GI50 [19]: > 100 µM (inactive) | GI50 [5]: > 100 µM (inactive) | GI50 [6]: > 100 µM (inactive) | GI50 [8]: > 100 µM (inactive) | GI50 [9]: > 100 µM (inactive) | GI50 [10]: > 100 µM (inactive) | GI50 [11]: > 100 µM (inactive) | GI50 [12]: > 100 µM (inactive) | GI50 [13]: > 100 µM (inactive) | GI50 [14]: > 100 µM (inactive) | GI50 [15]: > 100 µM (inactive) | GI50 [16]: > 100 µM (inactive)
